Experiments:
Test in all cases: relative viability (nuclei count vs DMSO), 5 days (fraction); higher = more cells survive
Docetaxel = compound: CC(=O)O[C@@]12CO[C@@H]1C[C@H](O)[C@@]1(C)C(=O)[C@H](O)C3=C(C)[C@@H](OC(=O)[C@H](O)[C@@H](NC(=O)OC(C)(C)C)c4ccccc4)C[C@@](O)([C@@H](OC(=O)c4ccccc4)[C@H]21)C3(C)C [Docetaxel]
Outline: (§1)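 Viability was read as treated-well nuclei divided by vehicle-well nuclei, using the median across plates. Lung cancer cell lines in 1536-well plates were kept overnight at 37 °C, pinned with five √10-spaced library-drug doses, and after 5 days were Hoechst-stained, imaged at 4× and counted in MetaXpress. Plates passed only with control CV below 25% and at least one doubling.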

Tivozanib = compound: COc1cc2nccc(Oc3ccc(NC(=O)Nc4cc(C)on4)c(Cl)c3)c2cc1OC [Tivozanib]
Outline: as §1

[1] = compound: Cc1cnc(-c2cnc(NCCNc3ccc(C#N)cn3)nc2-c2ccc(Cl)cc2Cl)[nH]1
Outline: as §1

JQ1 = compound: Cc1sc2c(c1C)C(c1ccc(Cl)cc1)=N[C@@H](CC(=O)OC(C)(C)C)c1nnc(C)n1-2 [JQ1]
Outline: as §1

Cytarabine = compound: Nc1ccn([C@@H]2O[C@H](CO)[C@@H](O)[C@@H]2O)c(=O)n1 [Cytarabine]
Outline: as §1

CPI-613 = compound: O=C(O)CCCCC(CCSCc1ccccc1)SCc1ccccc1 [CPI-613]
Outline: as §1

Pimozide = compound: O=c1[nH]c2ccccc2n1C1CCN(CCCC(c2ccc(F)cc2)c2ccc(F)cc2)CC1 [Pimozide]
Outline: as §1

Work on NCI-H1650 yielded a relative viability (Docetaxel; 0.0002 µM) of 0.705, a relative viability (Docetaxel; 0.000632 µM) of 0.37 and a relative viability (Docetaxel; 0.002 µM) of 0.301. It also gave a relative viability (Docetaxel; 0.006325 µM) of 0.205, a relative viability (Docetaxel; 0.02 µM) of 0.146 and a relative viability (Tivozanib; 0.005 µM) of 0.786. The relative viability (Tivozanib; 0.01581 µM) was 0.964, the relative viability (Tivozanib; 0.05 µM) was 0.941 and the relative viability (Tivozanib; 0.1581 µM) was 0.946. For the same cell line, the relative viability (Tivozanib; 0.5 µM) was 0.779, the relative viability ([1]; 0.08 µM) was 1 and the relative viability ([1]; 0.253 µM) was 0.812. For the same cell line, the relative viability ([1]; 0.8 µM) was 0.904, the relative viability ([1]; 2.53 µM) was 0.761 and the relative viability (JQ1; 0.04 µM) was 0.808. For the same cell line, the relative viability (JQ1; 0.1265 µM) was 0.68, the relative viability (JQ1; 0.4 µM) was 0.578 and the relative viability (JQ1; 1.265 µM) was 0.217. It also gave a relative viability (JQ1; 4 µM) of 0.21, a relative viability (Cytarabine; 0.005 µM) of 0.793 and a relative viability (Cytarabine; 0.01581 µM) of 0.633. It also gave a relative viability (Cytarabine; 0.05 µM) of 0.514, a relative viability (Cytarabine; 0.1581 µM) of 0.224 and a relative viability (Cytarabine; 0.5 µM) of 0.225. For the same cell line, the relative viability (CPI-613; 5 µM) was 0.877, the relative viability (CPI-613; 15.81 µM) was 0.776 and the relative viability (CPI-613; 50 µM) was 0.942. It also gave a relative viability (CPI-613; 158.11 µM) of 0.137, a relative viability (CPI-613; 500 µM) of 0.0508 and a relative viability (Pimozide; 0.08 µM) of 0.719. The relative viability (Pimozide; 0.253 µM) was 0.893, the relative viability (Pimozide; 0.8 µM) was 0.883 and the relative viability (Pimozide; 2.53 µM) was 0.887. The relative viability (Pimozide; 8 µM) was 0.809.

Work on NCI-H1651 yielded a relative viability (Docetaxel; 0.0002 µM) of 0.858, a relative viability (Docetaxel; 0.000632 µM) of 0.979 and a relative viability (Docetaxel; 0.002 µM) of 0.671. For the same cell line, the relative viability (Docetaxel; 0.006325 µM) was 0.198, the relative viability (Docetaxel; 0.02 µM) was 0.14 and the relative viability (Tivozanib; 0.005 µM) was 0.941. For the same cell line, the relative viability (Tivozanib; 0.01581 µM) was 0.951, the relative viability (Tivozanib; 0.05 µM) was 1.05 and the relative viability (Tivozanib; 0.1581 µM) was 0.882. For the same cell line, the relative viability (Tivozanib; 0.5 µM) was 0.98, the relative viability ([1]; 0.08 µM) was 0.975 and the relative viability ([1]; 0.253 µM) was 0.924. The relative viability ([1]; 0.8 µM) was 0.982, the relative viability ([1]; 2.53 µM) was 1.02 and the relative viability (JQ1; 0.04 µM) was 0.908. The relative viability (JQ1; 0.1265 µM) was 0.838, the relative viability (JQ1; 0.4 µM) was 0.708 and the relative viability (JQ1; 1.265 µM) was 0.606. For the same cell line, the relative viability (JQ1; 4 µM) was 0.546, the relative viability (Cytarabine; 0.005 µM) was 1.07 and the relative viability (Cytarabine; 0.01581 µM) was 0.972. For the same cell line, the relative viability (Cytarabine; 0.05 µM) was 0.986, the relative viability (Cytarabine; 0.1581 µM) was 0.664 and the relative viability (Cytarabine; 0.5 µM) was 0.476. The relative viability (CPI-613; 5 µM) was 0.995, the relative viability (CPI-613; 15.81 µM) was 0.947 and the relative viability (CPI-613; 50 µM) was 0.93. It also gave a relative viability (CPI-613; 158.11 µM) of 0.769, a relative viability (CPI-613; 500 µM) of 0.527 and a relative viability (Pimozide; 0.08 µM) of 0.977. It also gave a relative viability (Pimozide; 0.253 µM) of 1, a relative viability (Pimozide; 0.8 µM) of 0.964 and a relative viability (Pimozide; 2.53 µM) of 0.913. It also gave a relative viability (Pimozide; 8 µM) of 0.973.

Work on NCI-H1666 yielded a relative viability (Docetaxel; 0.0002 µM) of 0.86, a relative viability (Docetaxel; 0.000632 µM) of 0.876 and a relative viability (Docetaxel; 0.002 µM) of 0.616. For the same cell line, the relative viability (Docetaxel; 0.006325 µM) was 0.6, the relative viability (Docetaxel; 0.02 µM) was 0.421 and the relative viability (Tivozanib; 0.005 µM) was 0.965. The relative viability (Tivozanib; 0.01581 µM) was 0.965, the relative viability (Tivozanib; 0.05 µM) was 1.02 and the relative viability (Tivozanib; 0.1581 µM) was 0.99. It also gave a relative viability (Tivozanib; 0.5 µM) of 1.02, a relative viability ([1]; 0.08 µM) of 0.983 and a relative viability ([1]; 0.253 µM) of 0.929. It also gave a relative viability ([1]; 0.8 µM) of 1.06, a relative viability ([1]; 2.53 µM) of 0.998 and a relative viability (JQ1; 0.04 µM) of 0.94. For the same cell line, the relative viability (JQ1; 0.1265 µM) was 0.965, the relative viability (JQ1; 0.4 µM) was 0.848 and the relative viability (JQ1; 1.265 µM) was 0.711. For the same cell line, the relative viability (JQ1; 4 µM) was 0.64, the relative viability (Cytarabine; 0.005 µM) was 1 and the relative viability (Cytarabine; 0.01581 µM) was 0.849. It also gave a relative viability (Cytarabine; 0.05 µM) of 0.803, a relative viability (Cytarabine; 0.1581 µM) of 0.56 and a relative viability (Cytarabine; 0.5 µM) of 0.573. The relative viability (CPI-613; 5 µM) was 0.964, the relative viability (CPI-613; 15.81 µM) was 0.945 and the relative viability (CPI-613; 50 µM) was 0.837. It also gave a relative viability (CPI-613; 158.11 µM) of 0.696, a relative viability (CPI-613; 500 µM) of 0.323 and a relative viability (Pimozide; 0.08 µM) of 0.953. The relative viability (Pimozide; 0.253 µM) was 0.983, the relative viability (Pimozide; 0.8 µM) was 0.934 and the relative viability (Pimozide; 2.53 µM) was 0.909. For the same cell line, the relative viability (Pimozide; 8 µM) was 0.909.

In the case of NCI-H1703, the relative viability (Docetaxel; 0.0002 µM) is reported as 0.891, the relative viability (Docetaxel; 0.000632 µM) is reported as 0.869 and the relative viability (Docetaxel; 0.002 µM) is reported as 0.274. For the same cell line, the relative viability (Docetaxel; 0.006325 µM) was 0.163, the relative viability (Docetaxel; 0.02 µM) was 0.127 and the relative viability (Tivozanib; 0.005 µM) was 0.36. The relative viability (Tivozanib; 0.01581 µM) was 0.271, the relative viability (Tivozanib; 0.05 µM) was 0.311 and the relative viability (Tivozanib; 0.1581 µM) was 0.211. For the same cell line, the relative viability (Tivozanib; 0.5 µM) was 0.215, the relative viability ([1]; 0.08 µM) was 1.14 and the relative viability ([1]; 0.253 µM) was 0.901. The relative viability ([1]; 0.8 µM) was 1.01, the relative viability ([1]; 2.53 µM) was 1.28 and the relative viability (JQ1; 0.04 µM) was 0.865. The relative viability (JQ1; 0.1265 µM) was 0.675, the relative viability (JQ1; 0.4 µM) was 0.639 and the relative viability (JQ1; 1.265 µM) was 0.431. It also gave a relative viability (JQ1; 4 µM) of 0.405, a relative viability (Cytarabine; 0.005 µM) of 0.729 and a relative viability (Cytarabine; 0.01581 µM) of 0.393. It also gave a relative viability (Cytarabine; 0.05 µM) of 0.288, a relative viability (Cytarabine; 0.1581 µM) of 0.16 and a relative viability (Cytarabine; 0.5 µM) of 0.153. For the same cell line, the relative viability (CPI-613; 5 µM) was 1.04, the relative viability (CPI-613; 15.81 µM) was 0.836 and the relative viability (CPI-613; 50 µM) was 0.749. The relative viability (CPI-613; 158.11 µM) was 0.585, the relative viability (CPI-613; 500 µM) was 0.406 and the relative viability (Pimozide; 0.08 µM) was 0.899. The relative viability (Pimozide; 0.253 µM) was 0.916, the relative viability (Pimozide; 0.8 µM) was 0.913 and the relative viability (Pimozide; 2.53 µM) was 0.95. The relative viability (Pimozide; 8 µM) was 0.892.

Cell Line NCI-H1734 has a relative viability (Docetaxel; 0.0002 µM) of 0.857, a relative viability (Docetaxel; 0.000632 µM) of 0.602 and a relative viability (Docetaxel; 0.002 µM) of 0.359. It also gave a relative viability (Docetaxel; 0.006325 µM) of 0.332, a relative viability (Docetaxel; 0.02 µM) of 0.235 and a relative viability (Tivozanib; 0.005 µM) of 0.963. For the same cell line, the relative viability (Tivozanib; 0.01581 µM) was 1.03, the relative viability (Tivozanib; 0.05 µM) was 0.983 and the relative viability (Tivozanib; 0.1581 µM) was 0.721. The relative viability (Tivozanib; 0.5 µM) was 0.885, the relative viability ([1]; 0.08 µM) was 1.08 and the relative viability ([1]; 0.253 µM) was 0.891. The relative viability ([1]; 0.8 µM) was 0.974, the relative viability ([1]; 2.53 µM) was 0.85 and the relative viability (JQ1; 0.04 µM) was 0.934. The relative viability (JQ1; 0.1265 µM) was 0.904, the relative viability (JQ1; 0.4 µM) was 0.999 and the relative viability (JQ1; 1.265 µM) was 0.664. For the same cell line, the relative viability (JQ1; 4 µM) was 0.578, the relative viability (Cytarabine; 0.005 µM) was 0.578 and the relative viability (Cytarabine; 0.01581 µM) was 0.342. It also gave a relative viability (Cytarabine; 0.05 µM) of 0.256, a relative viability (Cytarabine; 0.1581 µM) of 0.156 and a relative viability (Cytarabine; 0.5 µM) of 0.136. It also gave a relative viability (CPI-613; 5 µM) of 0.861, a relative viability (CPI-613; 15.81 µM) of 0.841 and a relative viability (CPI-613; 50 µM) of 0.884. The relative viability (CPI-613; 158.11 µM) was 0.48, the relative viability (CPI-613; 500 µM) was 0.111 and the relative viability (Pimozide; 0.08 µM) was 0.981. The relative viability (Pimozide; 0.253 µM) was 0.901, the relative viability (Pimozide; 0.8 µM) was 0.81 and the relative viability (Pimozide; 2.53 µM) was 0.915. It also gave a relative viability (Pimozide; 8 µM) of 0.974.

— the supplement of paper PMC10307832
